Publication PMC6331991, “Anemarrhena asphodeloides Non-Steroidal Saponin Components Alter the Pharmacokinetic Profile of Its Steroidal Saponins in Rat” (Molecules, 2015)
Where two headings read alike, the source gives them in different places.

Tests used:
[1] = Pharmacokinetic study of four steroidal saponins in rat plasma after oral administration of A. asphodeloides fractions (UPLC-MS/MS); assay type: in vivo, Sprague-Dawley rats; conditions: rat, in vivo, po; for AUC(0-t) / half-life / Cmax / Tmax: male, Sprague-Dawley, 400 mg/kg
Method: The dried A. asphodeloides were chopped into slices before using. The A. asphodeloides was immersed in water (1:10, w/v) and extracted twice by refluxing for 2 h. After filtration, the supernatant was condensed to a certain volume under reduced pressure, and 95% ethanol was added to the water extract filtrates until the concentration of ethanol was 80%. The precipitate was filtered as the macromolecular fraction (MF), the ethanol supernatant was concentrated under reduced pressure to a certain volume under vacuum and then purified by gradient elution with water, 40% ethanol and 70% ethanol from an AB-8 MARO porous resin column and then the water-eluted fraction was combined with the 40% ethanol-eluted fraction as the small molecule fraction (SF) and the 70% ethanol eluted fraction was the A. asphodeloides saponins extract (ASE). All of the residues were lyophilized and the resulting dry powder was stored at 4 °C before usage. The contents of four steroidal saponins in ASE dry powder were measured quantitatively by the external standard method using the same chromatography conditions as described above. The contents of timosaponin BII, anemarsaponin BIII, timosaponin AIII and timosaponin E1 in ASE were 429.12, 89.81, 59.13 and 41.25 mg/g, respectively.
Frozen plasma samples were unfrozen at room temperature and treated as follows: to each 200 µL plasma sample, 20 µL of IS (920 ng/mL ginsenoside Re) working solution and 600 µL of acetonitrile were added. After vortexing for 2 min and centrifugation at 13,000 rpm at 4 °C for 10 min the supernatant was transferred into a new tube and evaporated to dryness in a rotary evaporator at 39 °C and the residue was reconstituted in 100 µL of 0.1% formic acid–acetonitrile (50:50, v/v), vortexed for 2 min and centrifuged at 13,000 rpm at 4 °C for 10 min. The supernatant was transferred to an autosampler vial and an aliquot of 2 μL was injected onto the UPLC-MS/MS system for analysis.
Male Sprague-Dawley rats (250–280 g) were obtained from the Shanghai Slac Laboratory Animal Co., Ltd. (Shanghai, China). All animals were kept in an environmentally controlled breeding room (temperature: 20–25 °C, humidity: 55%–65%) for 1 week before the experiments started. Animal welfare and experimental procedures were strictly in accordance with the ethical norms of the Nanjing University of Chinese Medicine. All rats were fasted for 12 h with free access to water prior to the experiments, twenty-four rats were divided into four groups and then were given a single dose of ASE, ASE-SF, AS-MF, AS-M-SF. A 40 mg/mL ASE (the amount of MF, SF added to group AS-MF, ASE-SF, AS-M-SF were based on the proportion extracted from A. asphodeloides) aqueous solution in each group was administered orally at a dose of 400 mg/kg, which contained 171.61, 35.92, 23.62, 16.53 mg/kg of timosaponin BII, anemarsaponin BIII, timosaponin AIII, timosaponin E1, respectively.
About 400 μL blood samples were collected from venipuncture before intragastric gavage and at 0.083, 0.25, 0.5, 1, 1.5, 2, 4, 6, 8, 10, 12, 24 h after a single oral administration. The blood samples were immediately transferred to heparinized tubes and centrifuged at 3000 rpm for 10 min, and the supernatant was transferred into 2.0 mL Eppendorf tubes and stored at −80 °C prior to analysis. Blank plasma was obtained from the rat without oral administration and was used to investigate the assay development and validation.
To calculate the pharmacokinetic parameters of analytes in different group, concentrations–time dada were analyzed by DAS 3.2 software (Mathematical Pharmacology Professional Committee of China, Shanghai, China, 2011). Data were measured as the mean ± standard deviation (S.D.) with triplicate measurements. The identification of significances between different groups was executed with Student’s t-test. A p value < 0.05 was considered statistically significant.

[2] = parameters: method as in PMID 20686523, PMID 23542670; conditions: plasma concentration peak; cited from earlier work

Row | Compound | AUC(0-t) [1] | half-life [1] | AUC(0-t) ([1]; AUC0–t) | Cmax [1] | half-life ([1]; T1/2) | Tmax [1] | T1/2 [1] | shape of plasma concentration-time curve [1] | shape of plasma concentration-time curve [2]
1 | CC1=C(CCC(C)COC2OC(CO)C(O)C(O)C2O)OC2CC3C4CCC5CC(OC6OC(CO)C(O)C(O)C6OC6OC(CO)C(O)C(O)C6O)CCC5(C)C4CCC3(C)C12 (centres unmarked) [Anemarsaponin BIII, anemarsaponin BIII] | 551 ± 75 ng·h/mL | 7.63 ± 3.37 h | 257 ± 20.4 ng·h/mL | 34.5 ± 3.75 ng/mL | 2.75 ± 1.14 h | 3.75 ± 1.78 h | no obvious difference | double peak | –
2 | C[C@H]1CC[C@@]2(OC1)O[C@H]1C[C@H]3[C@@H]4CC[C@@H]5C[C@@H](O)CC[C@]5(C)[C@H]4CC[C@]3(C)[C@H]1[C@@H]2C [sarsasapogenin] | – | – | – | – | – | – | – | – | single plasma concentration peak
3 | CC(CCC1(O)OC2C(O)C3C4CCC5CC(OC6OC(CO)C(O)C(O)C6OC6OC(CO)C(O)C(O)C6O)CCC5(C)C4CCC3(C)C2C1C)COC1OC(CO)C(O)C(O)C1O (centres unmarked) [Timosaponin E1, timosaponin E1] | 286 ± 36.8 ng·h/mL | 8.8 ± 3.83 h | 115 ± 5.35 ng·h/mL | 18.9 ± 1.54 ng/mL | 2.95 ± 0.4 h | 4 h | no obvious difference | double peak | –
